Reference: ChEMBL document CHEMBL1777674, “2,6-Disubstituted pyrazines and related analogs as NR2B site antagonists of the NMDA receptor with anti-depressant activity” (Bioorg Med Chem Lett, 2011)
≈ marks a conversion by molar mass, not a printed value.

Columns and labels:
[1] = Equilibrium solubility of the compound at pH 7.4; type: physicochemical; conditions: buffer
[2] = Intrinsic clearance in human liver microsomes; type: ADME, Microsome
[3] = Plasma concentration in mouse at 10 mg/kg, ip after 30 mins; type: ADME, organism-based; design: dose 10 mg/kg, route intraperitoneal
[4] = Plasma concentration in mouse at 30 mg/kg, ip after 30 mins; type: ADME, organism-based; design: dose 30 mg/kg, route intraperitoneal
[5] = Plasma concentration in mouse at 60 mg/kg, ip after 30 mins; type: ADME, organism-based; design: dose 60 mg/kg, route intraperitoneal
[6] = Ratio of drug level in brain to plasma in mouse at 10 mg/kg, ip after 30 mins; type: ADME, organism-based; design: dose 10 mg/kg, route intraperitoneal; conditions: read-out: BPR
[7] = Ratio of drug level in brain to plasma in mouse at 30 mg/kg, ip after 30 mins; type: ADME, organism-based; design: dose 30 mg/kg, route intraperitoneal; conditions: read-out: BPR
[8] = Ratio of drug level in brain to plasma in mouse at 60 mg/kg, ip after 30 mins; type: ADME, organism-based; design: dose 60 mg/kg, route intraperitoneal; conditions: read-out: BPR

Row | SMILES | solubility thermodynamic [1] [µM] | microsomal CLint [2] [µL/min/mg] | concentration at 0.5 h [3] [nM] | concentration at 0.5 h [4] [nM] | concentration at 0.5 h [5] [nM] | Kp at 0.5 h [6] | Kp at 0.5 h [7] | Kp at 0.5 h [8]
1 | COc1cc(F)ccc1-c1cncc(CNCC2CC2)n1 | 340 (≈ 97.7 µg/mL) | 108 | – | – | – | – | – | –
2 | COc1cc(F)ccc1-c1cncc(CNC2CCCC2)c1 | > 450 | 74 | 867 | 2320 | 3370 | 10.9 | 13.6 | 12.6
3 | COc1cc(F)ccc1-c1cncc(CNC(=O)c2cnccn2)c1 | 63 (≈ 21.3 µg/mL) | 64 | – | – | – | – | – | –

More lines, now with the values ahead:

Row | solubility thermodynamic [1] [µM] | microsomal CLint [2] [µL/min/mg] | concentration at 0.5 h [3] [nM] | concentration at 0.5 h [4] [nM] | concentration at 0.5 h [5] [nM] | Kp at 0.5 h [6] | Kp at 0.5 h [7] | Kp at 0.5 h [8] | SMILES
4 | – | 45 | – | – | – | – | – | – | COc1cc(F)ccc1-c1cncc(CNC(=O)c2ccccn2)c1
5 | > 470 | 37 | – | – | – | – | – | – | C[C@@H]([C@@H](O)c1ccc(O)cc1)N1CCC(O)(c2ccccc2)CC1 [TRAXOPRODIL]
